# Results published in patent EP4744680A1, “TARGETED CHEMICAL DRUG AND PREPARATION METHOD THEREFOR, PHARMACEUTICAL COMPOSITION, AND USE OF TARGETED CHEMICAL DRUG” (Bai Yao Zhi Da (Beijing) Nanobio Technology Co., Ltd., priority 2023, dated 2025).
# Assay: Body weight in the N87 study of the Example 5 drug
# Assay type: in vivo, mouse (BALB/c nude)
# Conditions: 0.12mg i.v. (tail vein) once every 5 days, 5 administrations
# Description: Body weight is measured three times per week.Data are recorded and changes analyzed.
smiles,measurement,value
"COc1cccc2c1C(=O)c1c(O)c3c(c(O)c1C2=O)C[C@@](O)(C(=O)CO)C[C@@H]3O[C@H]1C[C@H](N)[C@@H](O)[C@H](C)O1 [Epirubicin drug substance (API), Epirubicin]",Body-weight difference (g) between Day 23 and Day 5,-3.84 g
